Measurements: US8697747B2, “Enhancing coagulation or reducing fibrinolysis” (THe UAB Research Foundation, priority 2009, dated 2014)

Assays:
[1] = pure (43.5 mg/mL) or up to three-fold diluted fibrinogen solution
Source text: Exposure of purified fibrinogen to CORM-2. Experiments with purified fibrinogen pre-exposure to CORM-2 were to be performed in a similar fashion as that described with prothrombin. […] Therefore, a concentration-response relationship between various fibrinogen concentrations with or without the addition of CORM-2 was generated as outlined subsequently.

[2] = tested on: factor VIII deficient plasma; assay: Thrombelastography, factor VIII deficient plasma; assay type: biochemical, human; conditions: FVIII deficient plasma, 11 individuals, mean ± SD
Method: Plasma deficient (<1% normal activity) in factor VIII (FVIII; 11 individuals), factor IX (FIX; 5 individuals), or factor VII (FVII; 4 individuals) was obtained from anonymous donors (George King Bio-Medical, Overland Park, Kans.) and was anticoagulated with sodium citrate. The final volume for all subsequently described plasma sample mixtures was […]. Sample composition consisted of […] of plasma, […] of tissue factor (0.1% final concentration in 0.9% NaCl; Diagnostica Stago, Asnieres, France), 3.6 mL of dimethyl sulfoxide (DMSO) or DMSO with CORM-2 ([…]; Sigma-Aldrich, St. Louis, Mo.), and 20 mL of […] CaCl2. […] (Motterlini et al. 2005). While CORM-2 decays slowly in DMSO, DMSO was added to the dry compound just prior to placement into the plasma mixture.
Plasma sample mixtures were placed in a disposable cup in a computer-controlled THROMBELASTOGRAPH® hemostasis system (Model 5000; Haemoscope Corp., Niles, Ill.), with addition of CaCl2 as the last step to initiate clotting. Data were collected until clot strength stabilized (maximum amplitude).
Statistical analyses. […] A paired student's t-test was used to analyze the effects of CORM-2 exposure in FVIII deficient individuals. The results of the FIX and FVII deficient groups were presented but not statistically analyzed secondary to the small number of individuals in each cohort. […] Statistical analyses and graphical representation of the data were generated with commercially available software (SigmaPlot 11.0; Systat Software Inc., San Jose, Calif.; CorelDRAW 12.0; Corel Corp., Ottawa, Ontario, Canada). A P value of less than 0.05 was considered significant.

[3] = tested on: fibrinogen deficient plasma; assay: Thrombelastography in fibrinogen deficient plasma with added fibrinogen; assay type: biochemical, human
Method: Plasma types, purified proteins and compounds. Prothrombin deficient plasma (George King Bio-Medical, Overland Park, Kans.) anticoagulated with sodium citrate was utilized for experimentation concerning the effects of CORM-2 on prothrombin. Purified prothrombin (Enzyme Research Laboratories, South Bend, Ind.) that was 95% pure (10.4 mg/mL, 11.1 U/mg, suspended in 20 mM Tris-HCl in 0.1M NaCl at pH 7.4) was used for experimentation. Fibrinogen deficient plasma (Affinity Biologicals, Inc., Ancaster, Ontario, Canada) anticoagulated with sodium citrate was used in experiments investigating the effects of CORM-2 on fibrinogen. […] CORM-2 and dimethyl sulfoxide (DMSO) were obtained from Sigma-Aldrich, St. Louis, Mo.
Fibrinogen deficient plasma experiments. In these experiments, the final plasma sample mixture volume was 358.6 μL. Sample composition consisted of 260 μL of fibrinogen deficient plasma, 65 μL of pure fibrinogen solution, and dH2O to generate discrete fibrinogen concentrations subsequently described, 3.6 μL of DMSO or CORM-2 in DMSO (final CORM-2 concentration 0 or 100 μM, n=4 per fibrinogen concentration), 10 μL of tissue factor reagent (0.1% final concentration), and 20 μL of 200 mM CaCl2. The fibrinogen concentrations studied were 100, 200, 300, 400, 500, 600, and 800 mg/dL.
Thrombelastographic monitoring. Plasma sample mixtures were placed in a disposable cup in a computer-controlled THROMBELASTOGRAPH® hemostasis system (Model 5000, Haemoscope Corp., Niles, Ill.), with addition of CaCl2 as the last step to initiate clotting. Data were collected until clot strength stabilized. The following previously described variables (Examples 1-3) were determined at 37° C.: Time to maximum rate of thrombus generation (TMRTG): This is the time interval (sec) observed prior to maximum speed of clot growth. […]
Statistical Analyses. […] The difference between the mean values of MRTG or TTG in samples exposed to 0 or 100 μM CORM-2 were determined and expressed as percent difference secondary to CORM-2 exposure in the fibrinogen deficient plasma experiments.

[4] = aqueous solution pH=7.4, 37° C.; cited from earlier work
[5] = 100 μM vs 0 μM CORM-2, fibrinogen 300 mg/dL

With [C-]#[O+].[C-]#[O+].[C-]#[O+].[C-]#[O+].[C-]#[O+].[C-]#[O+].[Cl][Ru][Cl].[Cl][Ru][Cl] [CORM-2, tricarbonyldichlororuthenium (II) dimer] the “solubility of CORM-2 in DMSO added to purified fibrinogen solution” value [1] was “not soluble”, the “TMRTG (time to maximum rate of thrombus generation)” value ([2]; 100 mmol CORM-2) was 4.0 ± 2.3 min and the “TTG (total thrombus generation)” value ([2]; 100 mmol CORM-2) was 232±56 dynes/cm^2. For the same molecule, the “MRTG (maximum rate of thrombus generation)” value ([2]; CORM-2) was 5.0±2.7 dynes/cm^2/sec, the “TMRTG, range of values” ([3]; 100 μM CORM-2, fibrinogen 100-800 mg/dL) was 2.83 to 4.00 min and the “increase in MRTG secondary to CORM-2 exposure” value [3, 5] was over 80%. The “increase in TTG secondary to CORM-2 exposure” value [3, 5] was over 80% and the “CO released from every mole of CORM-2” value [4] was 0.75 mol.
